Columns and labels:
PfDHODH [1] = target: T1, PfDHODH (Plasmodium falciparum, UniProt Q08210, DEL384-413); test: Isothermal titration calorimetry; assay type: binding; conditions: ITC, 303 K; for ΔH PfDHODH: 1σ confidence interval in parentheses
T1 sequence (Q08210 with tags, fused parts or gaps DEL384-413): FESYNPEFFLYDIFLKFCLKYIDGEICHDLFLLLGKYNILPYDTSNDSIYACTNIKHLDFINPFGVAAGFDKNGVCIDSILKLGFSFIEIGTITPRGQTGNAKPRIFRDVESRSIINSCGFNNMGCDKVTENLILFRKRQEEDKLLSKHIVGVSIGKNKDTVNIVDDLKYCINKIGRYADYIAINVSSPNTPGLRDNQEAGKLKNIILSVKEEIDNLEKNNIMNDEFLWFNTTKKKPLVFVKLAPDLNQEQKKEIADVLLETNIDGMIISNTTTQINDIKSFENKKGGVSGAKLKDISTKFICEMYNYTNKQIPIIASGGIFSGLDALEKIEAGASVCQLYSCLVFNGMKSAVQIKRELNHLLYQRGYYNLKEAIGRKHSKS

HsDHODH = HsDHODH (Homo sapiens, UniProt Q02127); test: DHODH steady-state inhibition, DCIP assay; assay type: biochemical
HsDHODH R136A = HsDHODH R136A (Homo sapiens, UniProt Q02127, R135A); test: biochemical
HsDHODH L46A = HsDHODH L46A (Homo sapiens, UniProt Q02127, L45A); test: biochemical
rat DHODH = rat DHODH (Rattus norvegicus, UniProt Q63707); test: Isothermal titration calorimetry; assay type: binding; conditions: ITC, 303 K; for ΔH rat DHODH: 1σ confidence interval in parentheses
mDHODH = mDHODH (Mus musculus, UniProt O35435); test: DHODH steady-state inhibition, DCIP assay; assay type: biochemical
rDHODH = rDHODH (Rattus norvegicus, UniProt Q63707); test: DHODH steady-state inhibition, DCIP assay; assay type: biochemical
dDHODH = dDHODH (Canis lupus familiaris, UniProt A0A8I3MWX2); test: DHODH steady-state inhibition, DCIP assay; assay type: biochemical, dog
P. falciparum 3D7 cells = conditions: read-out: IC50 P. falciparum 3D7 cells; cited from earlier work
PfDHODH [2] = target: T2, PfDHODH (Plasmodium falciparum, UniProt Q08210); conditions: read-out: IC50 PfDHODH; cited from earlier work
T2 sequence (Q08210 158-569): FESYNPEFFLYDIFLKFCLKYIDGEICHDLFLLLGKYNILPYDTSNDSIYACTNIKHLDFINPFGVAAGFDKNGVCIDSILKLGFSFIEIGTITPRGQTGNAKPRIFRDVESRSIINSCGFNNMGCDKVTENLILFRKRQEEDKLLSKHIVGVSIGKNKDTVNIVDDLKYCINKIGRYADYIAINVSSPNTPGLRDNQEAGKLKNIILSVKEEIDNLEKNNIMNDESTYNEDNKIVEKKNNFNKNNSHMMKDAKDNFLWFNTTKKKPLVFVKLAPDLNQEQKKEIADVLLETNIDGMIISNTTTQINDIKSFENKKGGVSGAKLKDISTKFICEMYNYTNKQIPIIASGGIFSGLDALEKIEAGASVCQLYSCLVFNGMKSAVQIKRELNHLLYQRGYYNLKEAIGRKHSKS

HsDHODH L359A = HsDHODH L359A (Homo sapiens, UniProt Q02127, L358A); test: biochemical
HsDHODH L359A, sequence (Q02127 32-395 L358A): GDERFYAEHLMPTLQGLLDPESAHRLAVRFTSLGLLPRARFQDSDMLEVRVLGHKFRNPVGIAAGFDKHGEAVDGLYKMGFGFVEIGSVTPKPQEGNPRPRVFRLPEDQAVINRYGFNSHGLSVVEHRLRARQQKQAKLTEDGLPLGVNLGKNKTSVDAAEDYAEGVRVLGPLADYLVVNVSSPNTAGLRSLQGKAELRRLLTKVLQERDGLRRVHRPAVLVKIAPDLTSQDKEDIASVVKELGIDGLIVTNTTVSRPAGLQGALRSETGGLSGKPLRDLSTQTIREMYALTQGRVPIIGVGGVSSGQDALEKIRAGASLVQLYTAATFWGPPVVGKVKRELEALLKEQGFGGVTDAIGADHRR

HsDHODH R136A, sequence (Q02127 32-395 R135A): as the sequence (Q02127 32-395 L358A) above, with R104A, A327L counted along it
rat DHODH, sequence (Q63707 32-395 limits assumed): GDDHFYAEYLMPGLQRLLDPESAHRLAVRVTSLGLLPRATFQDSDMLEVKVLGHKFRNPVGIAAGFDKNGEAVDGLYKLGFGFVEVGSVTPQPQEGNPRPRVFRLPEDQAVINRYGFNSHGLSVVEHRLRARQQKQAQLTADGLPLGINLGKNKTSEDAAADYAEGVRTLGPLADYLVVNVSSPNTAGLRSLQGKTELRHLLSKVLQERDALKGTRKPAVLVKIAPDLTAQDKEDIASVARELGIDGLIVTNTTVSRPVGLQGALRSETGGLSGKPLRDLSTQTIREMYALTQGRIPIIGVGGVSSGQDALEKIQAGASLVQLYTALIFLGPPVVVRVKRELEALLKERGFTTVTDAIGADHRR
HsDHODH L46A, sequence (Q02127 32-395 L45A): as the sequence (Q02127 32-395 L358A) above, with L14A, A327L counted along it
HsDHODH, sequence (Q02127 29-395 limits assumed): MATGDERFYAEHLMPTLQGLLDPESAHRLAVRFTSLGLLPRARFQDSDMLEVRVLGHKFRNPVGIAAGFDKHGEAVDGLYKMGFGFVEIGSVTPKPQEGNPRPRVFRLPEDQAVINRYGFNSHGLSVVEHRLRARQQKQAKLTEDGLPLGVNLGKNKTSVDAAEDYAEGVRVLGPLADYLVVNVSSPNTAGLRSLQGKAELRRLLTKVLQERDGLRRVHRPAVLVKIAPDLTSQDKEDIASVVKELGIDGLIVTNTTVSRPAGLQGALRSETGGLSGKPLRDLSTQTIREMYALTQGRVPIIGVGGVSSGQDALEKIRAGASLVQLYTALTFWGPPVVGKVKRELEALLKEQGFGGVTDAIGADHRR
dDHODH, sequence (A0A8I3MWX2 29-395): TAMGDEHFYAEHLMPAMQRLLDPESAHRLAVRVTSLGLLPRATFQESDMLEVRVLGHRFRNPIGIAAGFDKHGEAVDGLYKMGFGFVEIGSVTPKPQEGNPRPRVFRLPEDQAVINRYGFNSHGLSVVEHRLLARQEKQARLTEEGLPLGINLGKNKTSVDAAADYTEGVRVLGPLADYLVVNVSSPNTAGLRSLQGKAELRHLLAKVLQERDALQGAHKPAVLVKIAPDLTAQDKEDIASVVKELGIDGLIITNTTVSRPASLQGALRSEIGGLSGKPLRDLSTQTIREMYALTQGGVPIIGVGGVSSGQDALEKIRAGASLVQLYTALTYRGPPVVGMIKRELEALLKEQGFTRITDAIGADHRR
rDHODH, sequence (Q63707 29-395 limits assumed): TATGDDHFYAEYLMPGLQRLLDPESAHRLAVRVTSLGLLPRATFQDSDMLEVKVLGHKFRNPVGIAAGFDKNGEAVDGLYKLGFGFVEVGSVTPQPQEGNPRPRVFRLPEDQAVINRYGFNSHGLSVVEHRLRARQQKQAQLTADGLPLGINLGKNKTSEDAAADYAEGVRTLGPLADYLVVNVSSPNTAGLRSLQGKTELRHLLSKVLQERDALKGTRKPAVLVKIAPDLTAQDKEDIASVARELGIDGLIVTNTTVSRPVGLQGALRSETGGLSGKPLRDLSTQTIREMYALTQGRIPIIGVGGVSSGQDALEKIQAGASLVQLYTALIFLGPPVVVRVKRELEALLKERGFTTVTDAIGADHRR
mDHODH, sequence (O35435 29-395 limits assumed): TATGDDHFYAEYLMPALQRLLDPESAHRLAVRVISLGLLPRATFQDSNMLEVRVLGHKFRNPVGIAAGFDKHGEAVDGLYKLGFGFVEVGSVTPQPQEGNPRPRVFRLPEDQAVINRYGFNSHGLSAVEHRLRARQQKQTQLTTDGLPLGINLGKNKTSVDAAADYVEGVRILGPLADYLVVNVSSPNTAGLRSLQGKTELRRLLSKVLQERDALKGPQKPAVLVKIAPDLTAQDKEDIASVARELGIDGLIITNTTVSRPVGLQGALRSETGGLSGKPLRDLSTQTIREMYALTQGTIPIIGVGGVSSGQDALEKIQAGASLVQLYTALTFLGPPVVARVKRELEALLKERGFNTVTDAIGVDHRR

Structure (SMILES) | –TΔS PfDHODH (PfDHODH [1]) | ΔH PfDHODH (PfDHODH [1]) | inhibition of the human enzyme (in words) (HsDHODH) | IC50 (HsDHODH R136A) [µM] | IC50 (HsDHODH L46A) [µM] | ΔH rat DHODH (rat DHODH) | inhibition of mouse DHODH (in words) (mDHODH) | inhibition of rat DHODH (in words) (rDHODH) | inhibition of dog DHODH (in words) (dDHODH) | IC50 (P. falciparum 3D7 cells) [µM] | IC50 (PfDHODH [2]) [µM] | IC50 (HsDHODH L359A) [µM] | –TΔS rat DHODH (rat DHODH)
Cc1cc(Nc2ccc(C(F)(F)F)cc2)n2nc(C(C)(F)F)nc2n1 [Compound 5, 2-(1,1-difluoroethyl)-5-methyl-N-[4-(trifluoromethyl)phenyl]-[1,2,4]triazolo[1,5-a]pyrimidin-7-amine] | –2.2 kcal/mol | –8.3 (−9.2 to −7.5) kcal/mol | did not inhibit | – | – | – | – | – | – | – | – | – | –
Cc1cc(Nc2cc(F)c(C(F)(F)F)c(F)c2)n2nc(C(F)(F)F)nc2n1 [Compound 6, N-(3,5-difluoro-4-(trifluoromethyl)phenyl)-2-(trifluoromethyl)-5-methyl-[1,2,4]-triazolo[1,5-a]pyrimidin-7-amine] | –4.5 kcal/mol | –6.5 (−6.9 to −6.2) kcal/mol | – | > 100 | > 100 | –1.6 (−1.8 to −1.5) kcal/mol | – | – | – | – | – | – | –
Cc1cc(Nc2ccc(C(F)(F)F)cc2)n2ncnc2n1 [Compound 8, (5-methyl[1,2,4]triazolo[1,5-a]pyrimidin-7-yl)(4-trifluoromethylphenyl)amine] | 1.5 kcal/mol | –10 (−12 to −9.8) kcal/mol | did not inhibit | – | – | – | did not inhibit | did not inhibit | did not inhibit | – | – | – | –
Cc1cc(Nc2cc(F)c(C(F)(F)F)c(F)c2)n2ncnc2n1 [Compound 9, N-(3,5-difluoro-4-(trifluoromethyl)phenyl)-5-methyl-[1,2,4]triazolo[1,5-a]pyrimidin-7-amine] | – | – | – | – | – | – | – | – | – | 0.22 | 0.13 | – | –
Cc1cc(Nc2ccc(C(F)(F)F)c(F)c2)n2nc(C(C)(F)F)nc2n1 [Compound 10, 2-(1,1-difluoroethyl)-N-[3-fluoro-4-(trifluoromethyl)phenyl]-5-methyl [1,2,4]triazolo[1,5-a]pyrimidin-7-amine] | –2.1 kcal/mol | –9.0 (−9.3 to −8.7) kcal/mol | – | > 100 | > 100 | – | – | – | – | – | – | > 100 | –
Cc1cc(Nc2cc(F)c(C(F)(F)F)c(F)c2)n2nc(C(C)(F)F)nc2n1 [Compound 11, N-(3,5-difluoro-4-(trifluoromethyl)phenyl)-2-(1,1-difluoroethyl)-5-methyl[1,2,4]-triazolo-[1,5-a]pyrimidin-7-amine] | –3.3 kcal/mol | –8.1 (−8.8 to −7.5) kcal/mol | – | > 100 | > 100 | –2.1 (−2.5 to −1.9) kcal/mol | – | – | – | – | – | > 100 | –8.0 kcal/mol

— paper PMC4079327 (Journal of Medicinal Chemistry, 2014)
